Consider one compound from patent US20170009266A1, “PROCESS FOR THE ATTACHMENT OF A GALNAC MOIETY COMPRISING A (HETERO)ARYL GROUP TO A GLCNAC MOIETY, AND PRODUCT OBTAINED THEREBY” (SYNAFFIX B.V., priority 2014, published 2017).

Structures are written as SMILES. Residue numbers refer to the chain shown, from its start.

Type in all cases: biochemical, bovine
One experiment addresses T1, Gal-T1(Y289L) (Bos taurus, UniProt P08037, I205M/L206V/P187L/V158I/Y289L).
T1 construct: host or cells: CHO K1
T1 sequence (P08037 74-402 V158I/P187L/I205M/L206V/Y289L): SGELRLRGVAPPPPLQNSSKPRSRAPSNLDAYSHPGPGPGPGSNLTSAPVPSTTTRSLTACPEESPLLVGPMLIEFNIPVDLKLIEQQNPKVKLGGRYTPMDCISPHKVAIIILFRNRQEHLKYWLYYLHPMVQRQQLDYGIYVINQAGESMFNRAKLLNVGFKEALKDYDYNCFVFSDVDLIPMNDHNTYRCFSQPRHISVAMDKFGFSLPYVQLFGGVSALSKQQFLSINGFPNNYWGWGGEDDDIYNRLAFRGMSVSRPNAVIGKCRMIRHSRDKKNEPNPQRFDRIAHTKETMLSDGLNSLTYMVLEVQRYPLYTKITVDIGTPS
Nature of the experiment: Glycosyltransfer to trimmed trastuzumab with Gal-T1(Y289L) expressed in CHO. To be noted: trimmed trastuzumab 10 mg/mL; UDP derivative 5 mM; enzyme 0.5 mg/mL; pH 8.0, 30° C. overnight. The source says:
(§1) A set of Gal-T 1 mutants encoding residues 74-402 of bovine Gal-T 1 were transiently expressed in CHO K1 cells by Evitria (Zurich, Switzerland) which include the Gal-T1 single mutants Y289L (represented by SEQ ID NO: 26), Y289F (represented by SEQ ID NO: 27), Y289M (represented by SEQ ID NO: 28), Y289V (represented by SEQ ID NO: 29), Y289A (represented by SEQ ID NO: 30), and Y289G (represented by SEQ ID NO: 31), and the Gal-T1 double mutants Y289L,C342T (represented by SEQ ID NO: 32), and Y289M,C342T (represented by SEQ ID NO: 33). The mutants were purified using a cation exchange column (Source 15S HR16/10 column, GE Healthcare) as described above. Purified proteins were analyzed by SDS-PAGE.
(§2) Trimmed trastuzumab (10 mg/mL, […] obtained by Endo S treatment of trastuzumab, was incubated with the 4-azido-3,5-difluorobenzoyl derivative of UDP-galactosamine (23, 5 mM) and one of the Gal-T1 single mutants Y289L, Y289M, Y289A or Y289G (expressed in CHO as described above) (0.5 mg/mL) in 10 mM MnCl2 and 25 mM Tris-HCl pH 8.0 at 30° C. overnight. Mass spectral analysis of the reduced sample indicated a partial conversion of the core GlcNac(Fuc)-substituted trastuzumab heavy chain (49504 Da) into product 30 (49818 to 49825 Da, 20 to 50% of total heavy chain depending on the Gal-T1 mutant used), resulting from transfer of 23 to core GlcNAc(Fuc)-substituted trastuzumab heavy chain. […]

Another experiment deals with T2, Gal-T1(Y289L,C342T) (Bos taurus, UniProt P08037, C342T/Y289L).
T2 construct: host or cells: CHO K1
T2 sequence (P08037 74-402 V158I/P187L/I205M/L206V/Y289L/C342T): T1 sequence (P08037 74-402 V158I/P187L/I205M/L206V/Y289L) with C269T
Kind of experiment: Glycosyltransfer to trimmed trastuzumab with Gal-T1(Y289L,C342T) expressed in CHO. To be noted: trimmed trastuzumab 10 mg/mL; UDP derivative 5 mM; enzyme 2.0 mg/mL; pH 8.0, 30° C. overnight. As for the experimental part: A solution of 20 μg (modified) IgG was incubated for 1 hour at 37° C. with Fabricator™ (commercially available from Genovis, Lund, Sweden) (1.25 U/μL) in phosphate-buffered saline (PBS) pH 6.6 in a total volume of 10 μL. Fabricator™-digested samples were washed trice with milliQ using an Amicon Ultra-0.5, Ultracel-10 Membrane (Millipore) resulting in a final sample volume of approximately 40 μL. The Fc/2 fragment was analyzed by electrospray ionization time-of-flight (ESI-TOF) on a JEOL AccuTOF. Deconvoluted spectra were obtained using Magtran software.
as §1, with “SDS-PAGE. […]” for “SDS-PAGE.”

Another experiment deals with T3, Gal-T1(Y289G) (Bos taurus, UniProt P08037, I205M/L206V/P187L/V158I/Y289G).
T3 construct: host or cells: CHO K1
T3 sequence (P08037 74-402 V158I/P187L/I205M/L206V/Y289G): T1 sequence (P08037 74-402 V158I/P187L/I205M/L206V/Y289L) with L216G
Nature of the experiment: Glycosyltransfer to trimmed trastuzumab with Gal-T1(Y289G) expressed in CHO. The following applies: trimmed trastuzumab 10 mg/mL; UDP derivative 5 mM; enzyme 0.5 mg/mL; pH 8.0, 30° C. overnight.
Description: as §1, §2

For the compound `[N-]=[N+]=Nc1c(F)cc(C(=O)N[C@H]2[C@@H](OP(=O)(O)OP(=O)(O)OC[C@H]3O[C@@H](n4ccc(=O)[nH]c4=O)[C@H](O)[C@@H]3O)O[C@H](CO)[C@H](O)[C@@H]2O)cc1F` [Compound 23, 4-azido-3,5-difluorobenzoyl Derivative of UDP-GalNH2], the observed conversion result is recorded as “approximately 30%” on Gal-T1(Y289L) and “approximately 20%” on Gal-T1(Y289G). Besides, the “conversion of core GlcNAc(Fuc)-substituted trastuzumab into product” value at Gal-T1(Y289L,C342T) is on record as “complete conversion”.
